The assay concerns the target IRAK4 (Homo sapiens (Human), UniProt Q9NWZ3). Put plainly: IRAK4 Kinase Assay (IMAP fluorescence polarization). Type of assay: biochemical. The note with it: 0.5 nM GST tagged IRAK4, 100 μM ATP, 30 minutes at 25° C., IMAP FP. On the procedure: The kinase activity of IRAK4 is determined by its ability to catalyze the phosphorylation of a fluorescent polypeptide substrate. The extent of phosphorylation is measured using the IMAP technology (Molecular Devices) where the phosphorylated fluorescent substrate binds to the large M (III)-based nanoparticles which reduces the rotational speed of the substrate and thus increases its fluorescent polarization (FP).
20 μL reaction mixture contains 10 mM TriHCl, pH 7.2, 0.5 nM GST tagged IRAK4 (SignalChem), 100 nM fluorescent peptide substrate (RP7030, Molecular Devices), 100 μM ATP, 1 mM DDT, 1 mM MgCl2, and 0.01% Tween 20. The reaction is initiated by the addition of ATP. After incubation for 30 minutes at 25° C., 60 μL of Progressive IMAP Reagent (Molecular Devices) is added to stop the reaction. Change in RP7030's FP is determined by a FP reader (Analyst HT, LJL BioSystems).
(In general: Polarisation of emitted light reports the rotation of a fluorescent probe.)

Counter-ions that a name gives are not always drawn.

Sequence of IRAK4 (Q9NWZ3 whole entry): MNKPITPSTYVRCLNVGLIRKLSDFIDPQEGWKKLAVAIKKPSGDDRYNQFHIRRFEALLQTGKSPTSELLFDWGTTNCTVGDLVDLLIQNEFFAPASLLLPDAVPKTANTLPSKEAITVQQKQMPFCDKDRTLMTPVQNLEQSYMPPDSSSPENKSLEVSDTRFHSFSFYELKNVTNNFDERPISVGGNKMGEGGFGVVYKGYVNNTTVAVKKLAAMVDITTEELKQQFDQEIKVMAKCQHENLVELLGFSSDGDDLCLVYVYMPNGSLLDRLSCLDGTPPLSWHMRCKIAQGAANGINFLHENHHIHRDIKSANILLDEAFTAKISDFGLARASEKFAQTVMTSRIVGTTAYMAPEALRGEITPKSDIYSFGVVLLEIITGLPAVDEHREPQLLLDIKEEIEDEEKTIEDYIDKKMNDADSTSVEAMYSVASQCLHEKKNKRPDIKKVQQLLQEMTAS

Broadly, the IC50 is the concentration that gives 50% inhibition. Low readings indicate inhibition by little substance, high ones a need for much substance. Consider `Cn1cc(NC(=O)c2ccc3ccc(N4C[C@@H]5CC[C@H]4CN5)nn23)c(Br)n1` (single isomer, unassigned) [Example 35, N-(3-bromo-1-methyl-1H-pyrazol-4-yl)-2-[(1S,4S)- or (1R,4R)-2,5-diazabicyclo[2.2.2]oct-2-yl]pyrrolo[1,2-b]pyridazine-7-carboxamide trifluoroacetate], for which the IC50 is 34 nM.
As for `Cn1cc(NC(=O)c2ccc3ccc(N[C@H]4CCCCNC4)nn23)c(C(F)F)n1` (single isomer, unassigned) [Example 42, 2-[(3R)- or (3S)-azepan-3-ylamino]-N-[3-(difluoromethyl)-1-methyl-1H-pyrazol-4-yl]pyrrolo[1,2-b]pyridazine-7-carboxamide trifluoroacetate], half-maximal inhibition (IC50) was put at 0.3 nM.
`O=C(Nc1ccccc1Br)c1ccc2ccc(N3CC4CCC3CN4)nn12` (stereo not drawn) [Example 61, N-(2-bromophenyl)-2-(2,5-diazabicyclo[2.2.2]oct-2-yl)pyrrolo[1,2-b]pyridazine-7-carboxamide trifluoroacetate]: the IC50 amounted to 1660 nM.
`O=C(Nc1ccccc1Cl)c1ccc2ccc(N[C@@H]3CCCC[C@@H]3O)nn12` [Example 93, N-(2-chlorophenyl)-2-{[(1R,2S)-2-hydroxycyclohexyl]amino}pyrrolo[1,2-b]pyridazine-7-carboxamide trifluoroacetate] came in with an IC50 of 6840 nM.
The figure for `Cn1cc(NC(=O)c2ccc3ccc(N4C[C@@H]5CN[C@@H](C5)C4)nn23)c(C(F)(F)F)n1` (single isomer, unassigned) [Example 3, 2-[(1S,5S)- or (1R,5R)-3,6-diazabicyclo[3.2.1]oct-3-yl]-N-[1-methyl-3-(trifluoromethyl)-1H-pyrazol-4-yl]pyrrolo[1,2-b]pyridazine-7-carboxamide] is 85 nM.
Regarding `Cn1cc(NC(=O)c2ccc3ccc(N[C@@H]4CCCC(F)(F)[C@@H]4N)nn23)c(C(F)(F)F)n1` [Example 7, 2-{[(1R,2R)-2-amino-3,3-difluorocyclo-hexyl]amino}-N-[1-methyl-3-(trifluoromethyl)-1H-pyrazol-4-yl]pyrrolo[1,2-b]pyridazine-7-carboxamide trifluoroacetate], the IC50 is 189 nM.
The figure for `Cn1cc(NC(=O)c2ccc3ccc(N4CCNCC5(CC5)C4)nn23)c(C(F)F)n1` [Example 18, 2-(5,8-diazaspiro[2.6]non-5-yl)-N-[3-(difluoromethyl)-1-methyl-1H-pyrazol-4-yl]pyrrolo[1,2-b]pyridazine-7-carboxamide trifluoroacetate] is 2 nM.
The figure for `Cn1cc(NC(=O)c2ccc3ccc(N[C@@H]4CCCC(F)(F)[C@@H]4N)nn23)c(Cl)n1` [Example 48, 2-{[(1R,2R)-2-amino-3,3-difluoro-cyclohexyl]amino}-N-(3-chloro-1-methyl-1H-pyrazol-4-yl)pyrrolo[1,2-b]pyridazine-7-carboxamide acetate] is 138 nM.
To `Cn1cc(NC(=O)c2ccc3ccc(N4CCCNCC4)nn23)c(C#N)n1` [Example 30, N-(3-cyano-1-methyl-1H-pyrazol-4-yl)-2-(1,4-diazepan-1-yl)pyrrolo[1,2-b]pyridazine-7-carboxamide trifluoroacetate] belongs 27 nM.
With `O=C(Nc1ccsc1Br)c1ccc2ccc(N3C[C@@H]4CC[C@H]3CN4)nn12` (single isomer, unassigned) [Example 78, N-(2-bromothiophen-3-yl)-2-[(1S,4S)- or (1R,4R)-2,5-diazabicyclo[2.2.2]oct-2-yl]pyrrolo[1,2-b]pyridazine-7-carboxamide trifluoroacetate], half-maximal inhibition (IC50) was put at 697 nM.
The figure for `O=C(Nc1ccccc1Br)c1ccc2ccc(N[C@@H]3CCCC[C@@H]3O)nn12` [Example 95, N-(2-bromophenyl)-2-{[(1R,2S)-2-hydroxycyclohexyl]amino}pyrrolo[1,2-b]pyridazine-7-carboxamide trifluoroacetate] is 5860 nM; for `N#Cc1ccccc1NC(=O)c1ccc2ccc(N3CC4CCC3CN4)nn12` (stereo not drawn) [Example 102, N-(2-cyanophenyl)-2-(2,5-diazabicyclo[2.2.2]oct-2-yl)pyrrolo[1,2-b]pyridazine-7-carboxamide trifluoroacetate] it is 461 nM.
The figure for `O=C(Nc1ccsc1C(F)(F)F)c1ccc2ccc(N3C[C@H]4CC[C@@H]3CN4)nn12` (single isomer, unassigned) [Example 114, 2-[(1S,4S)- or (1R,4R)-2,5-diazabicyclo[2.2.2]oct-2-yl]-N-[2-(trifluoromethyl)thiophen-3-yl]pyrrolo[1,2-b]pyridazine-7-carboxamide trifluoroacetate] is 1770 nM; for `Cn1cc(NC(=O)c2ccc3ccc(N4C[C@H]5CN[C@H](C5)C4)nn23)c(C(F)(F)F)n1` (single isomer, unassigned) [Example 4, 2-[(1S,5S)- or (1R,5R)-3,6-diazabicyclo[3.2.1]oct-3-yl]-N-[1-methyl-3-(trifluoromethyl)-1H-pyrazol-4-yl]pyrrolo[1,2-b]pyridazine-7-carboxamide] it is 131 nM; for `Cn1cc(NC(=O)c2ccc3ccc(N4C[C@@H]5CC[C@H]4CN5)nn23)c(Cl)n1` (single isomer, unassigned) [Example 33, N-(3-chloro-1-methyl-1H-pyrazol-4-yl)-2-[(1S,4S)- or (1R,4R)-2,5-diazabicyclo[2.2.2]oct-2-yl]pyrrolo[1,2-b]pyridazine-7-carboxamide trifluoroacetate] it is 45 nM.
The figure for `N[C@H]1CCCC[C@H]1Nc1ccc2ccc(C(=O)Nc3cscc3Br)n2n1` [Example 63, 2-{[(1R,2S)-2-aminocyclohexyl]amino}-N-(4-bromothiophen-3-yl)pyrrolo[1,2-b]pyridazine-7-carboxamide trifluoroacetate] is 7 nM; for `O=C(Nc1ccsc1Cl)c1ccc2ccc(N3CCCNCC3)nn12` [Example 66, N-(2-chlorothiophen-3-yl)-2-(1,4-diazepan-1-yl)pyrrolo[1,2-b]pyridazine-7-carboxamide trifluoroacetate] it is 636 nM; for `Cn1cc(NC(=O)c2ccc3ccc(N4CCCNCC4)nn23)c(Br)n1` [Example 21, N-(3-bromo-1-methyl-1H-pyrazol-4-yl)-2-(1,4-diazepan-1-yl)pyrrolo[1,2-b]pyridazine-7-carboxamide trifluoroacetate] it is 32 nM.
`N#Cc1sccc1NC(=O)c1ccc2ccc(N3CCCNCC3)nn12` [Example 67, N-(2-cyanothiophen-3-yl)-2-(1,4-diazepan-1-yl)pyrrolo[1,2-b]pyridazine-7-carboxamide trifluoroacetate] had an IC50 of 197 nM.
Regarding `Cn1cc(NC(=O)c2ccc3ccc(N[C@@H]4CCCC[C@@H]4N)nn23)c(C#N)n1` [Example 29, 2-{[(1R,2S)-2-aminocyclohexyl]amino}-N-(3-cyano-1-methyl-1H-pyrazol-4-yl)pyrrolo[1,2-b]pyridazine-7-carboxamide trifluoroacetate], the IC50 worked out at 0.7 nM. This IC50 lies about 280-fold lower than the previous one.
The figure for `N#Cc1sccc1NC(=O)c1ccc2ccc(N[C@@H]3CCCC(F)(F)[C@@H]3N)nn12` [Example 98, 2-{[(1R,2R)-2-amino-3,3-difluorocyclohexyl]amino}-N-(2-cyanothiophen-3-yl)pyrrolo[1,2-b]pyridazine-7-carboxamide trifluoroacetate] is 526 nM.

These data come from US10040798B2, “Pyrrolopyridazine inhibitors of IRAK4 activity” (MERCK SHARP & DOHME CORP., priority 2015, dated 2018).
